Results on 9 compounds are retold here after patent US7504407B2, “Compounds specific to adenosine A1 and A3 receptors and uses thereof” (OSI Pharmaceuticals, Inc., priority 2001, dated 2009).

Series [1] has as its target T1, human A3 receptor subtype (Homo sapiens, UniProt P0DMS8).
T1 construct: expressed in transfected cells; host or cells: HEK293
T1 sequence (P0DMS8 1-318): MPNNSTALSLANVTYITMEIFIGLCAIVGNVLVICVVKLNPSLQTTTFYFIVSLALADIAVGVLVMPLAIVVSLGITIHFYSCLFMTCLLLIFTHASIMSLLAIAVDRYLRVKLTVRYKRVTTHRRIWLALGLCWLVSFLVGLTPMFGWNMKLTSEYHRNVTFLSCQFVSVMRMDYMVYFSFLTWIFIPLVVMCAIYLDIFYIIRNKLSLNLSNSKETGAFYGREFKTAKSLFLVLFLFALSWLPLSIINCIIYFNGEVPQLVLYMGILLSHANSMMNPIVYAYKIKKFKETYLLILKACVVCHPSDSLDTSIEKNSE
Nature of the series: Adenosine 3 receptor competition radioligand binding, [125I]AB-MECA, HEK293 membranes. The settings on record: for properties relative to compound 1720: A3 affinity, A3/A1 selectivity, solubility as in Table 3.

Series [2] concerns the target T2, human A2a receptor subtype (Homo sapiens, UniProt P29274).
T2 construct: expressed in transfected cells; host or cells: HEK-293 (Cadus clone #5)
In words: Adenosine 2a receptor subtype competition radioligand binding, [3H]CGS-21680, HEK293 membranes. Particulars: @ 10 μM.

Series [3] has as its target T3, human A1 adenosine receptor (Homo sapiens, UniProt P30542).
T3 sequence (P30542 1-326): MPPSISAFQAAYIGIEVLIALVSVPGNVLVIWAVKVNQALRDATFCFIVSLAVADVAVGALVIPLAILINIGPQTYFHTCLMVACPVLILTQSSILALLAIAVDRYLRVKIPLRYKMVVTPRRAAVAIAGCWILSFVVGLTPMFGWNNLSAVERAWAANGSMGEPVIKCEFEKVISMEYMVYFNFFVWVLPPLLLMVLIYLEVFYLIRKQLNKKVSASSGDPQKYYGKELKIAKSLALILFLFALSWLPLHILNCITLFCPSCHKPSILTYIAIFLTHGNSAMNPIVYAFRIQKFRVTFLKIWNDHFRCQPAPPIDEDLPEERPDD
The settings on record: cited from earlier work.

The target in series [4] is T4, human A1 receptor subtype (Homo sapiens, UniProt P30542).
T4 sequence (P30542 1-326): T3 sequence (P30542 1-326)

T2 sequence (P29274 whole entry): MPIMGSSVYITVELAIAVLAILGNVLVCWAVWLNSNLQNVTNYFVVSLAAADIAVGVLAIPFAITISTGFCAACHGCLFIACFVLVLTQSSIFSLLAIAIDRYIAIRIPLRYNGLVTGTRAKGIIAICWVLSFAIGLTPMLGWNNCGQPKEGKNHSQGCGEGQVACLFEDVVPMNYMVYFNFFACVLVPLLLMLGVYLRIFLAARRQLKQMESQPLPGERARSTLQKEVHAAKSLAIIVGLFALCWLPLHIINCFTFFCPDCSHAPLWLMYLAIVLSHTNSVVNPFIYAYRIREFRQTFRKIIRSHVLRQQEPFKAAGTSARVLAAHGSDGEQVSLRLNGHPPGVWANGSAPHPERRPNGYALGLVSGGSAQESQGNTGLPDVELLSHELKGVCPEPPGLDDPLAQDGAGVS

Take `c1ccc(-c2nc(NCCc3cnc[nH]3)c3cc[nH]c3n2)cc1` [Compound 1720, [2-(3H-Imidazol-4-yl)-ethyl]-(2-phenyl-7H-pyrrolo[2,3-d]pyrimidin-4-yl)-amine]: the melting point lay within 234 to 235 °C. Besides, the “A3 receptor binding affinity relative to reference compound 1308” value in series [1] (relative to reference compound 1308) is given as “greater than 10 times”.

As to `Clc1cccc(-c2nc(NCCCn3ccnc3)c3cc[nH]c3n2)c1` [Compound 1723], the melting point is 183 to 185 °C.

`Clc1cccc(-c2nc(NCCc3cnc[nH]3)c3cc[nH]c3n2)c1` [Compound 1721]: in series [1], the “properties relative to compound 1720” value is reported as “superior” and the “Binding Affinity for A3 receptor relative to compound 1720” value is “Higher”.

On to `CNC(=O)NCCCNc1nc(-c2ccccc2)nc2[nH]c(C)c(C)c12` [Compound 1310], for which the “% activity A2a” value in series [2] was 76%.

For the compound `Cc1cc2c(NCCc3c[nH]cn3)nc(-c3cccc(Cl)c3)nc2[nH]1` [Compound 1731], in series [1], the “properties relative to compound 1720” value is “superior” and the “Binding Affinity for A3 receptor relative to compound 1720” value is given as “Similar”.

For `CC(Cc1ccccc1)Nc1ncnc2c1ncn2C1OC(CO)C(O)C1O` (single isomer, unassigned; (-)) [R-PIA, (−)-N6-(2-phenylisopropyl)-adenosine], the reported affinity entry in series [3] is listed as “approximately 50 nM”.

As for `NC(=O)[C@@H]1C[C@@H](O)CN1c1nc(-c2ccccc2)nc2[nH]ccc12` [Compound 1631, (2S, 4R)-4-Hydroxy-1-(2-phenyl-7H-pyrrolo[2,3-d]pyrimidin-4-yl)-pyrrolidine-2-carboxylic acid amide methane sulfonate], the “A1 receptor binding affinity relative to reference compounds 1318 or 1319” value in series [4] is “equaled or surpassed”.

Consider `Clc1cccc(-c2nc(NCCc3ccccn3)c3cc[nH]c3n2)c1` [Compound 1722], for which the melting point fell in the range of 199 to 200 °C.

Take `c1ccc(-c2nc(N3CCc4nc[nH]c4C3)c3cc[nH]c3n2)cc1` [Compound 1733]: in series [1], the “properties relative to compound 1720” value is “superior” and the “Binding Affinity for A3 receptor relative to compound 1720” value is “Similar”.
